Data: ChEMBL document CHEMBL3272209, “Anthelmintic 1-cinnamamido-2,4-imidazolidinediones” (1976)
Active and inactive are the calls of the source. The calls are words filed in the database; no cut-off is given here.

Key:
Type in all cases: functional
Syphacia obvelata [1] = assay: Anthelmintic activity against Syphacia obvelata infected in mouse assessed as reduction in worm burden at 300 mg/kg, po bid for 5 days; conditions: 120 h
Syphacia obvelata [2] = assay: Anthelmintic activity against Syphacia obvelata infected in mouse assessed as reduction in worm burden at 100 mg/kg, po bid for 5 days; conditions: 120 h
Syphacia obvelata [3] = assay: Anthelmintic activity against Syphacia obvelata infected in mouse assessed as reduction in worm burden at 50 mg/kg, po bid for 5 days; conditions: for inhibition in vivo at 50 mg/kg: 120 h
Syphacia obvelata [4] = assay: Anthelmintic activity against Syphacia obvelata infected in mouse assessed as reduction in worm burden at 25 mg/kg, po bid for 5 days; conditions: for inhibition in vivo at 25 mg/kg: 120 h
Syphacia obvelata [5] = assay: Anthelmintic activity against Syphacia obvelata infected in mouse assessed as reduction in worm burden at 10 mg/kg, po bid for 5 days

Structure (SMILES): O=C(/C=C/c1ccc2c(c1)OCO2)NN1CC(=O)NC1=O
- inhibition in vivo at 300 mg/kg (Syphacia obvelata [1]): 100%
- inhibition in vivo at 100 mg/kg (Syphacia obvelata [2]): 88%
- inhibition (Syphacia obvelata [3]): inactive

Structure (SMILES): CCc1ccc(/C=C/C(=O)NN2CC(=O)NC2=O)cc1Cl
- inhibition in vivo at 300 mg/kg (Syphacia obvelata [1]): 100%
- inhibition in vivo at 100 mg/kg (Syphacia obvelata [2]): 87%
- inhibition (Syphacia obvelata [3]): inactive

Structure (SMILES): O=C(/C=C/c1ccc(F)c(Cl)c1)NN1CC(=O)NC1=O
- inhibition in vivo at 300 mg/kg (Syphacia obvelata [1]): 100%
- inhibition in vivo at 100 mg/kg (Syphacia obvelata [2]): 100%
- inhibition in vivo at 50 mg/kg (Syphacia obvelata [3]): 87%
- inhibition (Syphacia obvelata [4]): inactive

Structure (SMILES): C1CNCCN1.O=C(O)CCCCC(=O)O
- inhibition in vivo at 300 mg/kg (Syphacia obvelata [1]): 96%
- inhibition in vivo at 100 mg/kg (Syphacia obvelata [2]): 42%
- inhibition (Syphacia obvelata [3]): inactive

Structure (SMILES): Cc1cc(/C=C/C(=O)NN2CC(=O)NC2=O)ccc1Br
- inhibition in vivo at 300 mg/kg (Syphacia obvelata [1]): 100%
- inhibition in vivo at 100 mg/kg (Syphacia obvelata [2]): 81%
- inhibition (Syphacia obvelata [3]): inactive

Structure (SMILES): N#Cc1ccc(/C=C/C(=O)NN2CC(=O)NC2=O)cc1
- inhibition in vivo at 300 mg/kg (Syphacia obvelata [1]): 100%
- inhibition in vivo at 100 mg/kg (Syphacia obvelata [2]): 100%
- inhibition in vivo at 50 mg/kg (Syphacia obvelata [3]): 100%
- inhibition in vivo at 25 mg/kg (Syphacia obvelata [4]): 97%
- inhibition (Syphacia obvelata [5]): inactive

Structure (SMILES): O=C(/C=C/c1ccc(Cl)cc1)NN1CC(=O)NC1=O
- inhibition in vivo at 300 mg/kg (Syphacia obvelata [1]): 100%
- inhibition in vivo at 100 mg/kg (Syphacia obvelata [2]): 97%
- inhibition in vivo at 50 mg/kg (Syphacia obvelata [3]): 52%
- inhibition (Syphacia obvelata [4]): inactive

Structure (SMILES): O=C(/C=C/c1ccc(F)cc1)NN1CC(=O)NC1=O
- inhibition in vivo at 300 mg/kg (Syphacia obvelata [1]): 100%
- inhibition in vivo at 100 mg/kg (Syphacia obvelata [2]): 69%
- inhibition in vivo at 50 mg/kg (Syphacia obvelata [3]): 67%
- inhibition (Syphacia obvelata [4]): inactive

Structure (SMILES): O=C(/C=C/c1ccccc1)NN1CC(=O)NC1=O
- inhibition in vivo at 300 mg/kg (Syphacia obvelata [1]): 86%
- inhibition in vivo at 100 mg/kg (Syphacia obvelata [2]): 75%
- inhibition (Syphacia obvelata [3]): inactive

Structure (SMILES): O=C(/C=C/c1ccc(Cl)c(Cl)c1)NN1CC(=O)NC1=O
- inhibition in vivo at 300 mg/kg (Syphacia obvelata [1]): 100%
- inhibition in vivo at 100 mg/kg (Syphacia obvelata [2]): 100%
- inhibition in vivo at 50 mg/kg (Syphacia obvelata [3]): 100%
- inhibition in vivo at 25 mg/kg (Syphacia obvelata [4]): 51%
- inhibition (Syphacia obvelata [5]): inactive

Structure (SMILES): O=C(/C=C/c1ccc(Cl)c(C(F)(F)F)c1)NN1CC(=O)NC1=O
- inhibition in vivo at 300 mg/kg (Syphacia obvelata [1]): 70%
- inhibition in vivo at 100 mg/kg (Syphacia obvelata [2]): 76%
- inhibition (Syphacia obvelata [3]): inactive

Structure (SMILES): Cc1ccc(/C=C/C(=O)NN2CC(=O)NC2=O)cc1Cl
- inhibition in vivo at 300 mg/kg (Syphacia obvelata [1]): 99%
- inhibition in vivo at 100 mg/kg (Syphacia obvelata [2]): 97%
- inhibition in vivo at 50 mg/kg (Syphacia obvelata [3]): 100%
- inhibition in vivo at 25 mg/kg (Syphacia obvelata [4]): 87%
- inhibition in vivo at 10 mg/kg (Syphacia obvelata [5]; 120 h): 34%

Structure (SMILES): O=C(/C=C/c1cccc(F)c1)NN1CC(=O)NC1=O
- inhibition in vivo at 300 mg/kg (Syphacia obvelata [1]): 100%
- inhibition in vivo at 100 mg/kg (Syphacia obvelata [2]): 77%
- inhibition (Syphacia obvelata [3]): inactive
